According to patent publication US10233179B2, “Thiazoles and uses thereof” (AbbVie Inc., priority 2013, dated 2019):

Tests used:
HEp-2 cells = assay: Cytotoxicity assay (MTT) in parallel with the antiviral assay; assay type: cell-based
Method: HEp-2 cells and RSV (Group A, Long Strain) were obtained from the American Type Culture Collection (Manassas, Va.). Cytotoxicity of the compounds was determined in experiments done in parallel with the antiviral assays. To do this, 100 μL of assay medium was added to the wells of HEp-2 cells pretreated with 100 μL serially diluted compounds as described above. After 4 days of incubation, the viability of the cells was determined by the MTT assay in the same way as detailed in the “Antiviral Assay” method. Results were expressed as 50% toxicity dose (TD50) values. Compounds were tested to determine both their antiviral and toxicity to determine their therapeutic window. Determination of the EC50 and TD50 of these active compounds were repeated one additional time to confirm the window.

[1] = tested on: RSV (Group A, Long Strain); assay: Antiviral cytopathic effect (CPE) protection assay, MTT readout; assay type: cell-based; conditions: human respiratory syncytial virus, 96 h; HEp-2 cells, 0.2 MOI RSV, 4 days incubation, protection from CPE by MTT
Method: HEp-2 cells and RSV (Group A, Long Strain) were obtained from the American Type Culture Collection (Manassas, Va.).
A cytopathic effect (CPE) protection assay was performed to determine the ability of a compound to protect the cells from viral infection and thus the CPE induced by viral infection. 96-Well plates were first seeded with 3×10^3 HEp-2 cells per well in Dulbecco's modified Eagle's medium (DMEM) containing 10% fetal bovine serum (FBS). One day after the cells were seeded, they were preincubated with serial dilutions of compounds prepared in 100 μL assay medium (DMEM mixed with F12 medium at a 1:1 ratio, supplemented with 2% FBS and 1 mM sodium pyruvate) for 1 hour at 37° C. 100 μL of assay medium containing 0.2 multiplicity of infection (MOI) of RSV was then added to each well of cells. In addition to wells containing infected cells incubated with compounds, each plate also contained replicates of two kinds of controls: (1) Virus control contained cells infected with 0.2 MOI of RSV in assay medium, (2) Uninfected cell control contained cells incubated with assay medium only. After 4 days of incubation at 37° C., the viability of cells was assessed using MTT (Thiazolyl blue tetrazolium bromide, Sigma). A stock solution of MTT, at a concentration of 4 mg/mL in phosphate-buffered saline, was added to all wells at 25 μL per well. Plates were further incubated for 4 hours, and each well was then treated with 50 μL of a solution containing 20% sodium dodecyl sulfate (SDS) and 0.02 N HCl. After an overnight incubation, the plates were measured on a BioTek® microtiter plate reader at wavelengths of 570 nm and 650 nm. The MTT detection is based on the fact that viable (uninfected) cells can reduce the tetrazolium salts into colored formazan products, which can then be quantitated by spectrometry. Based on the spectrometric absorbance of each sample, the percent of protection from CPE, which is an indicator of protection from viral infection, can be calculated for each compound and the 50% effective concentrations (EC50) can be calculated using a nonlinear regression curve fitting equation provided by the GraphPad Prism® 4 software.
Compounds were tested to determine both their antiviral and toxicity to determine their therapeutic window. Determination of the EC50 and TD50 of these active compounds were repeated one additional time to confirm the window.

[2] = uninfected HEp-2 cells, 4 days incubation, MTT viability

SMILES | EC50 [1] [µM] | MTT TD50 (HEp-2 cells; [2]) [µM] | MTT TD50 (HEp-2 cells; human, 4 days) [µM]
c1cc(CN(Cc2cccn2-c2nncs2)C[C@H]2CCOC2)n(-c2nncs2)c1 [Example 61, 1-[(3R)-tetrahydrofuran-3-yl]-N,N-bis{[1-(1,3,4-thiadiazol-2-yl)-1H-pyrrol-2-yl]methyl}methanamine] | > 100 | >100 | 
N#Cc1ccc(CN(Cc2cccn2-c2nncs2)Cc2cccn2-c2nncs2)cc1 [Example 56, 4-[(bis{[1-(1,3,4-thiadiazol-2-yl)-1H-pyrrol-2-yl]methyl}amino)methyl]benzonitrile] | 46 | >100 | 
FC(F)n1ccnc1CN(Cc1cccn1-c1nccs1)Cc1cccn1-c1nccs1 [Example 59, 1-[1-(difluoromethyl)-1H-imidazol-2-yl]-N,N-bis{[1-(1,3-thiazol-2-yl)-1H-pyrrol-2-yl]methyl}methanamine] | 4.1 | 35 | 
c1cc(CN(CCC2(c3ccncc3)CC2)Cc2cccn2-c2nncs2)n(-c2nncs2)c1 [Example 27, 2-[1-(pyridin-4-yl)cyclopropyl]-N,N-bis{[1-(1,3,4-thiadiazol-2-yl)-1H-pyrrol-2-yl]methyl}ethanamine] | 0.81 |  | >32
Cc1cc(N(Cc2cccn2-c2nncs2)Cc2cccn2-c2nncs2)n(-c2ccc(F)cc2)n1 [Example 43, 1-(4-fluorophenyl)-3-methyl-N,N-bis{[1-(1,3,4-thiadiazol-2-yl)-1H-pyrrol-2-yl]methyl}-1H-pyrazol-5-amine] | > 32 | >32 | 
Clc1cccc(Cl)c1CN(Cc1cccn1-c1nncs1)Cc1cccn1-c1nncs1 [Example 55, 1-(2,6-dichlorophenyl)-N,N-bis{[1-(1,3,4-thiadiazol-2-yl)-1H-pyrrol-2-yl]methyl}methanamine] | > 32 | >32 | 
CC(c1ccc(Cl)c(Cl)c1)N(Cc1cccn1-c1nncs1)Cc1cccn1-c1nncs1 (stereo not drawn) [Example 17, 1-(3,4-dichlorophenyl)-N,N-bis{[1-(1,3,4-thiadiazol-2-yl)-1H-pyrrol-2-yl]methyl}ethanamine] | 15 | >32 | 
COc1ccccc1CN(Cc1cccn1-c1nccs1)C(C)c1cnn(-c2cccc(F)c2)c1C (stereo not drawn) [Example 4, 1-[1-(3-fluorophenyl)-5-methyl-1H-pyrazol-4-yl]-N-(2-methoxybenzyl)-N-{[1-(1,3-thiazol-2-yl)-1H-pyrrol-2-yl]methyl}ethanamine] | > 0.48 | 0.48 | 
c1cnnc(N(Cc2cccn2-c2nccs2)Cc2cccn2-c2nccs2)c1 [Example 50, N,N-bis{[1-(1,3-thiazol-2-yl)-1H-pyrrol-2-yl]methyl}pyridazin-3-amine] | > 100 | >100 | 
c1ccc(C2(CCN(Cc3cccn3-c3nccs3)Cc3cccn3-c3nccs3)CC2)nc1 [Example 51, 2-[1-(pyridin-2-yl)cyclopropyl]-N,N-bis{[1-(1,3-thiazol-2-yl)-1H-pyrrol-2-yl]methyl}ethanamine] | 0.045 |  | 6.2
c1ccc(N(Cc2cccn2-c2nncs2)Cc2cccn2-c2nncs2)cc1 [Example 22, N,N-bis{[1-(1,3,4-thiadiazol-2-yl)-1H-pyrrol-2-yl]methyl}aniline] | 28 | >32 | 
Clc1ccc(CN(Cc2cccn2-c2nncs2)Cc2cccn2-c2nncs2)c(Cl)c1 [Example 42, 1-(2,4-dichlorophenyl)-N,N-bis{[1-(1,3,4-thiadiazol-2-yl)-1H-pyrrol-2-yl]methyl}methanamine] | > 32 | 32 | 
C[C@H](c1ccc(F)cc1)N(Cc1cccn1-c1nncs1)Cc1cccn1-c1nncs1 [Example 13, (1R)-1-(4-fluorophenyl)-N,N-bis{[1-(1,3,4-thiadiazol-2-yl)-1H-pyrrol-2-yl]methyl}ethanamine] | 14 | 93 | 

More lines, main results first:

EC50 [1] [µM] | SMILES | MTT TD50 (HEp-2 cells; [2]) [µM] | MTT TD50 (HEp-2 cells; human, 4 days) [µM]
0.062 | c1ccc(C2(CCN(Cc3cccn3-c3nncs3)Cc3cccn3-c3nncs3)CC2)nc1 [Example 21, 2-[1-(pyridin-2-yl)cyclopropyl]-N,N-bis{[1-(1,3,4-thiadiazol-2-yl)-1H-pyrrol-2-yl]methyl}ethanamine] | >32 | 
0.96 | Cc1c([C@@H](C)N(Cc2cccn2-c2nccs2)Cc2cccn2-c2nccs2)cnn1-c1cccc(F)c1 [Example 3, (1R)-1-[1-(3-fluorophenyl)-5-methyl-1H-pyrazol-4-yl]-N,N-bis{[1-(1,3-thiazol-2-yl)-1H-pyrrol-2-yl]methyl}ethanamine] | >32 | 
0.32 | Cc1c(C(C)N(Cc2ncc(-c3ccccc3)n2C)Cc2ncc(-c3ccccc3)n2C)cnn1-c1cccc(F)c1 (stereo not drawn) [Example 7, 1-[1-(3-fluorophenyl)-5-methyl-1H-pyrazol-4-yl]-N,N-bis[(1-methyl-5-phenyl-1H-imidazol-2-yl)methyl]ethanamine] | 5.2 | 
0.018 | Fc1ccccc1CN(Cc1cccn1-c1nccs1)Cc1cccn1-c1nccs1 [Example 40, 1-(2-fluorophenyl)-N,N-bis{[1-(1,3-thiazol-2-yl)-1H-pyrrol-2-yl]methyl}methanamine] | 6.3 | 
0.015 | Clc1ccccc1CN(Cc1cccn1-c1nccs1)Cc1cccn1-c1nccs1 [Example 47, 1-(2-chlorophenyl)-N,N-bis{[1-(1,3-thiazol-2-yl)-1H-pyrrol-2-yl]methyl}methanamine] | 7.0 | 
0.082 | N#Cc1cc(CN(Cc2cccn2-c2nccs2)Cc2cccn2-c2nccs2)cs1 [Example 67, 4-[(bis{[1-(1,3-thiazol-2-yl)-1H-pyrrol-2-yl]methyl}amino)methyl]thiophene-2-carbonitrile] | >32 | 
0.56 | c1cc(CN(Cc2cccn2-c2nncs2)CC2C[C@H]3CC[C@@H]2C3)n(-c2nncs2)c1 (stereo partly drawn) [Example 11, 1-[(1R,4S)-bicyclo[2.2.1]hept-2-yl]-N,N-bis{[1-(1,3,4-thiadiazol-2-yl)-1H-pyrrol-2-yl]methyl}methanamine] | 26 | 
0.062 | Clc1ccccc1CN(Cc1cccn1-c1nncs1)Cc1cccn1-c1nncs1 [Example 18, 1-(2-chlorophenyl)-N,N-bis{[1-(1,3,4-thiadiazol-2-yl)-1H-pyrrol-2-yl]methyl}methanamine] | >32 | 
0.045 | C[C@@H](c1ccccc1Cl)N(Cc1cccn1-c1nccs1)Cc1cccn1-c1nccs1 [Example 49, (1S)-1-(2-chlorophenyl)-N,N-bis{[1-(1,3-thiazol-2-yl)-1H-pyrrol-2-yl]methyl}ethanamine] | 4.3 | 
0.064 | Cc1ccccc1CN(Cc1cccn1-c1nncs1)Cc1cccn1-c1nncs1 [Example 12, 1-(2-methylphenyl)-N,N-bis{[1-(1,3,4-thiadiazol-2-yl)-1H-pyrrol-2-yl]methyl}methanamine] | >10 | 
2.7 | c1ccc(N(Cc2cccn2-c2nccs2)Cc2cccn2-c2nccs2)cc1 [Example 53, N,N-bis{[1-(1,3-thiazol-2-yl)-1H-pyrrol-2-yl]methyl}aniline] | >32 | 
0.55 | CC(c1ccc(Cl)c(Cl)c1)N(Cc1cccn1-c1nccs1)Cc1cccn1-c1nccs1 (stereo not drawn) [Example 46, 1-(3,4-dichlorophenyl)-N,N-bis{[1-(1,3-thiazol-2-yl)-1H-pyrrol-2-yl]methyl}ethanamine] | >32 | 
0.52 | c1ccc(CN(Cc2cccn2-c2nncs2)Cc2cccn2-c2nncs2)cc1 [Example 10, 1-phenyl-N,N-bis{[1-(1,3,4-thiadiazol-2-yl)-1H-pyrrol-2-yl]methyl}methanamine] | 97 | 
2.1 | FC(F)(F)c1cccc(CN(Cc2cccn2-c2nncs2)Cc2cccn2-c2nncs2)c1 [Example 16, 1-[1-(1,3,4-thiadiazol-2-yl)-1H-pyrrol-2-yl]-N-{[1-(1,3,4-thiadiazol-2-yl)-1H-pyrrol-2-yl]methyl}-N-[3-(trifluoromethyl)benzyl]methanamine] | 30 | 
